pIC50: −log10 of the molar value.
Legend:
aldose reductase [1] = biological target: T1, aldose reductase (Rattus norvegicus, UniProt P07943); experiment: Aldose Reductase Inhibition Test (Experiment 1); assay type: biochemical, rat (male SD rat crystalline lens); conditions: DL-glycerine aldehyde 10 mM, pH 6.2, 30° C., 5 min; for inhibition at 50 µM: final concentration 5×10^-5 M (values without asterisk); for inhibition at 1 µM: *Concentration of 10^-6 M
T1 construct: their crystalline lenses were immediately removed and stored at -80° C; The lenses were homogenized; from tissue; host or cells: crystalline lens of six-week-old male SD rats (homogenate supernatant, dialysed)
Procedure: (§1) Six-week-old male SD rats were killed under ether anesthesia and their crystalline lenses were immediately removed and stored at -80° C. The lenses were homogenized in 3 volumes of 135 mM sodium potassium phosphate buffer (pH: 7.0) and centrifuged at a rate of 30,000 rpm for 30 min. The supernatant was dialyzed overnight against 0.05M sodium chloride, to produce an aldose reductase solution. All operations were conducted at 4° C. The enzyme solution was stored at -80° C.
(§2) The activity of aldose reductase was determined according to a slight modification of the method of J. H. Kinoshita et al [J. Biol. Chem., 240, 877 (1965)]. Namely, 0.1 ml of DL-glycerine aldehyde (final concentration: 10 mM) was added to 0.9 ml of 100 mM sodium potassium phosphate buffer (pH 6.2) which contained lithium sulfate (final concentration: 400 mM), reduced nicotinamide adenine dinucleotide phosphate (final concentration: 0.15 mM), the enzyme solution, and the compound to be tested (final concentration: 5×10^-5 M or 10^-6 M), and then the reaction was conducted at 30° C. for 5 min. […] The maximum reducing rate of the absorbance (U) during the reaction was determined. By substracting, from this value, the maximum reducing rate (Uo) at 340 nm of the reaction solution before the addition of the substrate (DL-glycerine aldehyde), the reaction rate (V) (V=U-Uo) was calculated as a true reaction rate in the presence of the compound to be tested.
(§3) The same procedure was repeated except for the absence of the compound to be tested. A true reaction rate (Vo) in case the enzyme was not inhibited was calculated (Vo =U'-Uo '). The inhibitory activity of aldose reductase was determined by the following formula. [formula]

[2] = Acute toxicity test, oral (Experiment 3); conditions: mouse, in vivo, suspended in 0.5% sodium carboxymethyl cellulose, male MCH mice, 14 days observation
Text: The compound listed in Table 7 and suspended in 0.5% sodium carboxymethyl cellulose was orally administered to male MCH mice (6 weeks old: 5 animals per test group).
During the test, the mice were able to take food and water freely.

aldose reductase [3] = biological target: T1, aldose reductase; experiment: Aldose reductase inhibition, IC50 determination (Experiment 2); assay type: biochemical, rat (male SD rat crystalline lens); conditions: calculated from inhibitions at three final concentrations; DL-glycerine aldehyde 10 mM, pH 6.2, 30° C.
Procedure: as §1, with “The lenses were homogenized in 3 volumes of 135 mM sodium potassium phosphate buffer (pH: 7.0) and centrifuged at a rate of 30,000 rpm for 30 min.” left out
as §2, with “Namely,” for “The activity of aldose reductase was determined according to a slight modification of the method of J. H. Kinoshita et al [J. Biol. Chem., 240, 877 (1965)]. Namely,”
as §3
In the same manner as Experiment 1, the inhibitions at final concentrations of 10^-6, 10^-7 and […] for the compound to be tested were calculated.

Row | SMILES | inhibition at 50 µM (aldose reductase [1]) [%] | LD50 at 336 h [2] [mg/kg] | pIC50 (aldose reductase [3]) | inhibition at 1 µM (aldose reductase [1]) [%]
1 | O=C(O)Cn1nnnc1-c1cccc(NC(=O)C(=O)O)c1 [Compound 3-12, 3'-(1-Carboxymethyl-tetrazol-5-yl)oxanilic acid] | 97 | > 3000 | 7.51 | –
2 | COC(=O)Cn1nnnc1-c1ccc(C)cc1 [Compound 1-7, Methyl 5-(4-methylphenyl)-1-tetrazoleacetate] | 59 | > 3000 | – | –
3 | Cc1ccc(-c2nnnn2CC(=O)O)cc1 [Compound 3-6, 5-(4-Methylphenyl)-1-tetrazoleacetic acid] | – | > 3000 | 7.60 | 98
4 | O=C(O)Cn1nnnc1-c1ccccc1 [Compound 3-1, 5-Phenyl-1-tetrazoleacetic acid] | – | > 3000 | 7.49 | 97

Source: patent USRE35281E, “Tetrazole derivatives and aldose reductase inhibition therewith” (Wakamoto Pharmaceutical Co., Ltd., priority 1989, dated 1996)
